Measured values taken from a melting point compilation (Tetko et al.; mined from patent text by program, amines drawn as free bases though some values may be those of a salt).

Compared with `CCc1nn(C[C@@H]2CCCN2C)c(C(N)=O)c1[N+](=O)[O-]`, `CCN1CCCC1CNC(=O)c1cc(Cl)c(O)cc1OC` (configuration not stated) is higher in melting point: 148 to 150 °C for the first, 185 to 186 °C for the second.

First: Nc1ncnc2c1c(-c1cccc(O)c1)nn2Cc1oc2ccccc2c(=O)c1-c1ccccc1
Second: CCc1c(-c2ccccc2)oc2c(C(=O)NCCCN3CCN(c4ccccc4OC)CC3)cccc2c1=O
The melting point of the first is higher: 154 to 158 °C for the first, 133 to 136 °C for the second.

First: CC[C@H]1c2ccc(C#N)n2-c2cc(F)c(F)cc2N1S(=O)(=O)c1ccc(OS(N)(=O)=O)cc1
Second: CCCN1CC(c2cccc(Cl)c2)=C(c2ccc(S(C)(=O)=O)cc2)C1=O
The melting point of the first is higher: 196 to 201 °C for the first, 148 to 149 °C for the second.

Compared with `CC(O)(C=Cc1ccc(S(=O)(=O)c2ccncc2)cc1)C(F)(F)F` (configuration not stated), `FC(F)(F)c1cc(-c2ccc(Cl)cc2)nc2c(-c3ccncc3)cnn12` is higher in melting point: 168 to 171 °C for the first, 274 °C for the second.

First: CCCCOC1CCCC(C2NC(=O)C2C(C)O[Si](C)(C)C(C)(C)C)C1O (configuration not stated)
Second: CC(C)(C)[Si](C)(C)Oc1ccc(NC(=O)CBr)cc1
The melting point of the first is lower: 105 to 106 °C for the first, 112 to 113 °C for the second.

First: CN(C)C1(c2ccccc2Cl)C(=O)Nc2ccc(Cl)cc21 (configuration not stated)
Second: Cn1c2ccccc2c(=O)c2ccc(Cl)n21
The melting point of the first is higher: 169 to 172 °C for the first, 88.5 to 90.5 °C for the second.

Compared with `COn1nnc2ccc(Cn3ccnc3)cc21`, `COC(=O)c1nc2cc(Cn3ccnc3)ccc2[nH]1` is higher in melting point: 132 °C for the first, 228 °C for the second.

Compared with `Cc1ccc(OCn2c(-c3nonc3NCCC#N)nc3ccccc32)cc1C`, `CC(C)=NOc1cc(OCc2ccccc2)ccc1C#N` is lower in melting point: 132 to 135 °C for the first, 102 °C for the second.

Going from `COC(=O)C1CCn2c1cc(Cl)c2C(=O)c1ccccc1` (configuration not stated) to `COC(=O)c1ncc(-c2ccccc2)nc1N`, the melting point rises from 106 °C to 228 °C.

Compared with `CN1CCCC1CCNNC(=O)N1CCC(c2[nH]nc3c2C(=O)c2c(NC(=O)NN4CCOCC4)cccc2-3)CC1` (configuration not stated), `COc1cccc2c1nc(C(F)F)n2-c1nc(C2CCCN(C(=O)OC(C)(C)C)C2)nc(N2CCOCC2)n1` (configuration not stated) is higher in melting point: 91 to 93 °C for the first, 200 to 202 °C for the second.

Compared with `Cc1cccc(NC(=O)NC2N=C(c3ccccc3)c3ccccc3N(C)C2=O)c1` (configuration not stated), `CC(C)CCNC(=O)c1ccccc1-c1ccccc1CNC(=O)Nc1ccccc1` is lower in melting point: 207 to 209 °C for the first, 194 °C for the second.

First: Cc1cc(CCCCCOc2ccc(-c3nccs3)cc2)on1
Second: O=C(O)CCCCOc1ccccc1C1(c2ccccc2)NC(=O)NC1=O (configuration not stated)
The melting point of the first is lower: 78 to 80 °C for the first, 231 to 232 °C for the second.

First: CS(=O)(=O)c1cc([N+](=O)[O-])cc(O)c1O
Second: COc1ccc(C(=O)c2c(C)oc3ccc([N+](=O)[O-])cc23)cc1
The melting point of the first is higher: 221 to 224 °C for the first, 167 °C for the second.

`CC(=O)OC1Cc2ccccc2N(C#N)c2ccccc21` (configuration not stated) and `Cc1cc2ccccc2c(-c2ccccc2I)n1` cannot be ordered by melting point: 108 to 119 °C for the first, 111 to 112 °C for the second.

Compared with `CCOC(=O)c1cn(C2CC2)c2c(F)c(N3CCN(C)CC3)c(F)c([Si](C)(C)C)c2c1=O`, `CC(C)(C)OC(=O)N[C@H]1CC[C@H](CCN2CCN(c3cccc(Cl)c3Cl)CC2)CC1` is lower in melting point: 231 to 233 °C for the first, 150 to 154 °C for the second.

Compared with `CCOC(=O)c1cc(=O)c2c(OCC(O)COc3cccc(O)c3C(=O)C=CN(C)C)cccc2o1` (configuration not stated), `CC(C)[C@H]1c2ccc(F)cc2CC[C@]1(O)CC(=O)N(C)CCCc1nc2ccccc2[nH]1` is lower in melting point: 159 to 165 °C for the first, 132 to 138 °C for the second.

Compared with `CCCCN1CC2CN(S(=O)(=O)c3ccc(NC(=O)c4ccc(C#N)cc4)cc3)CC(C1)C2(C)C`, `CCOC(=O)[C@H]1CC(OC(C)=O)CN1S(=O)(=O)c1ccc(C)cc1` (some centres not stated) is lower in melting point: 145 °C for the first, 82 to 83 °C for the second.

Compared with `O=C1NC(C(=O)NCCO[N+](=O)[O-])C(c2cccs2)S1` (configuration not stated), `CCN(CC)CCNC(=O)c1ccc([N+](=O)[O-])cc1OC` is lower in melting point: 120 to 122 °C for the first, 59.3 °C for the second.

First: O=C(c1ccco1)c1cnn2c(-c3cccc(N4CCCC4=O)c3)ccnc12
Second: O=C1CCCc2ccc(OCCCCN3CCN(c4cccc5ccc(F)cc45)CC3)nc2N1
The melting point of the first is higher: 210 to 211 °C for the first, 202 to 203 °C for the second.

Compared with `O=C(O)c1ccc(S(=O)(=O)Oc2c(Br)cc(-c3ccc(-c4c(Cc5ccccc5)sc5ccccc45)cc3)cc2Br)cc1O`, `COc1cccc(OC)c1-c1ccc(C[C@H](NC(=O)c2c(Cl)cc(-c3cscn3)cc2Cl)C(=O)O)cc1` is lower in melting point: 192 to 194 °C for the first, 186 °C for the second.

First: COc1cnn(C)c(=O)c1Cl
Second: COC(=O)c1nc(-c2ccc(Cl)c(OC)c2F)c(F)c(N)c1Cl
The melting point of the first is higher: 189 to 191 °C for the first, 169 to 170 °C for the second.

First: CCOC(=O)[C@@H](NC(=O)[C@H](CC(C)C)NC(=O)OC(C)(C)C)[C@@H](C)O
Second: CC(C)(C)OC(=O)N[C@@H](Cc1ccc(O)cc1)C(=O)NCCCN1CCN(CCCNc2cccc3c2C(=O)c2ccccc2C3=O)CC1
The melting point of the first is lower: 67 to 70 °C for the first, 102 °C for the second.

Compared with `Nn1cnc2ccccc2c1=O`, `CC1(C)NC(=O)c2ccccc21` is lower in melting point: 209 to 210 °C for the first, 159 to 160 °C for the second.

First: Cc1cc2c(s1)c(=O)c(C(N)=O)cn2C
Second: CSc1cc2c(cc1F)C(=O)C(=O)N2
The melting point of the first is higher: 328 to 330 °C for the first, 296 °C for the second.

Compared with `Nc1cccc2c1OC1(CC1)C2=O`, `Clc1cccc(-c2cc(OCC3CO3)no2)c1` (configuration not stated) is lower in melting point: 136 °C for the first, 86 to 87 °C for the second.

First: NC(=O)Nc1ccc(-c2c[nH]c(=O)cn2)cc1
Second: O=C(Nc1ccc(Cl)nc1)c1ccc(Cl)o1
The melting point of the first is higher: greater than 300 °C for the first, 143 to 144 °C for the second.

Compared with `CN(C)C/C=C/C(=O)Nc1cc2c(Nc3ccc(F)c(Br)c3)ncnc2cn1`, `COc1cc2ncnc(N3CCN(C(=O)Nc4ccc(N)cc4)CC3)c2cc1OC` is higher in melting point: 163 to 166 °C for the first, 215 to 217 °C for the second.

First: Cc1cc(-c2cnn3c(C(F)(F)F)cc(-c4ccc(Br)cc4)nc23)cc(C)n1
Second: N#Cc1ccc(NC(=O)c2cc3ccccc3cc2O)c(OC(F)(F)F)c1
The melting point of the first is higher: 258 °C for the first, 248 °C for the second.

First: CCOc1cc(OCC(=O)N2CCN(C(=O)OC(C)(C)C)CC2)cc2c1C(=O)N(COC(=O)c1c(Cl)cccc1Cl)S2(=O)=O
Second: COc1cc(C(C)C)c2c(c1)S(=O)(=O)N(COC(=O)c1c(C)cc(C)cc1C)C2=O
The melting point of the first is higher: 193 to 195 °C for the first, 137 to 138 °C for the second.

First: CCc1ccc(S(N)(=O)=O)cc1
Second: COc1ccccc(NS(=O)(=O)c2ccc(C)cc2)c1=O
The melting point of the first is lower: 104 to 108 °C for the first, 163 to 164 °C for the second.

First: COC(=O)/C=C/c1ccc2nn(C)cc2c1C(=O)OC
Second: CCC(=O)NCC1CC1c1c(Br)ccc2nn(C)cc12 (configuration not stated)
The melting point of the first is higher: 232 to 234 °C for the first, 119 to 121 °C for the second.

First: O=c1[nH]c2cc(Cl)cc(Cl)c2c(-c2cc(Cl)ccc2O)c1O
Second: CN1C(=O)CSC(c2cccc(Cl)c2)c2cc(C(O)(c3ccc(Cl)cc3)c3cncn3C)ccc21 (configuration not stated)
The melting point of the first is higher: 297 to 299 °C for the first, 186 °C for the second.

First: CCSc1cc(C)nc(SCC)c1NC(=O)CN1CCN(CCSc2nc3ccc(COC)c(COC)c3o2)CC1
Second: COc1cc(-c2nc(NC(=O)c3cc4cc(C)cc(C)c4n3CC(=O)O)sc2CCC2CCCCC2)c(OC)cc1Cl
The melting point of the first is lower: 118 to 120 °C for the first, 241 °C for the second.

First: Cc1nc(-n2ccc(OCc3ccc(F)cc3)cc2=O)sc1C(=O)NCc1ccccc1
Second: CONC(=O)C(C)c1ccc2cc(OCc3ccc4ccccc4n3)ccc2c1 (configuration not stated)
The melting point of the first is higher: 243 to 245 °C for the first, 162 to 164 °C for the second.

First: CCCCCS(=O)(=O)NC(=O)CCc1ccc(OCCOC)cc1OCC1CCCO1 (configuration not stated)
Second: COCCOc1ccc(/C=C/C(=O)O)c(Oc2ncc(C(F)(F)F)cc2Cl)c1
The melting point of the first is lower: 57.8 to 58.9 °C for the first, 132 °C for the second.

First: CN(C)S(=O)(=O)n1ccc2cnccc21
Second: CN(C)S(=O)(=O)c1ccccc1-c1cnc(N)c(C(=O)Nc2cccnc2)n1
The melting point of the first is lower: 87 °C for the first, 222 to 223 °C for the second.

Compared with `Cc1cc(SCc2cccc3nn(-c4ccc(C(F)(F)F)cc4)cc23)ccc1OC(C)(C)C(=O)O`, `COc1ccc(N(Cc2cnn(Cc3ccc(C(F)(F)F)cc3)c2)C(=O)C2CCCc3c(O)cccc32)cn1` (configuration not stated) is higher in melting point: 125 to 127 °C for the first, 199 to 200 °C for the second.

Compared with `Cc1occ(S(=O)(=O)NC(C)(C)C)c1C`, `COC(=O)CNS(=O)(=O)c1c(C(=O)OC)sc2ccccc12` is higher in melting point: 95 to 96 °C for the first, 148 to 150 °C for the second.

First: COC(=O)CCC(C#N)(CCC(=O)OC)c1ccc(OC)c(OC)c1
Second: COC(=O)c1c(OC)c([N+](=O)[O-])c(C(=O)OC)c(OC)c1[N+](=O)[O-]
The melting point of the first is lower: 72 to 73 °C for the first, 126 to 127 °C for the second.

First: CCOc1cc(Cc2cnc(N)nc2N)cc2c1OC(C)(C)C=C2c1ccc(OC)c(OC)c1
Second: COc1ccc2oc(N(C=O)[C@@H](Cc3ccccn3)c3ncc(-c4ccc([N+](=O)[O-])cc4)n3C)cc2c1
The melting point of the first is lower: 191 to 192 °C for the first, 210 to 211 °C for the second.

First: Cc1ccc2c(Cl)c(Cl)ccc2n1
Second: CCN(CCCN1c2ccccc2N(C)C(=O)c2ccc(C)nc21)C(C)C
The melting point of the first is lower: 84 to 85 °C for the first, 104 to 105 °C for the second.

First: COc1ccc(C(=O)C(CCC(C)=O)c2ccc(OC)cc2)cc1 (configuration not stated)
Second: CCOC(=O)c1ccc(NCC(C)Oc2ccc(F)cc2)cc1 (configuration not stated)
The melting point of the first is lower: 62 to 65 °C for the first, 96 to 98 °C for the second.

First: FC(F)(F)c1cc(Cl)c(-n2cc(I)c(-c3ccccc3)n2)c(Cl)c1
Second: COc1ccc2c(c1)C(=O)C(=Cc1c[nH]c3ccccc13)CO2
The melting point of the first is lower: 88 to 89 °C for the first, 217 to 219 °C for the second.

Compared with `CN1C(=O)CC[C@]2(C)c3ccc(-c4cc(F)c([N+](=O)[O-])cc4F)cc3CC[C@@H]12`, `O=c1[nH]c2cc(F)ccc2c(=O)n1CCCN1CC=C(c2ccc(Cl)cc2)CC1` is higher in melting point: 130 to 140 °C for the first, 197 to 198 °C for the second.

First: CCCC(C(C)=CC(CNC(=O)Cc1cccnc1)=NO)[N+](=O)[O-] (configuration not stated)
Second: O=C(O)COc1ccc(NC(=O)c2csc(NC(=O)NCc3ccccc3)n2)cc1C(=O)O
The melting point of the first is lower: 128 to 129 °C for the first, 219 °C for the second.

First: COc1ccc(/C(=C/C=C/C(=O)Oc2ccc([N+](=O)[O-])cc2)C2CCCCC2)cc1
Second: O=C(NO)[C@H](CNS(=O)(=O)c1ccc(OCc2ccccc2)cc1)N1CCCCC1
The melting point of the first is lower: 117 to 119 °C for the first, 126 °C for the second.

First: C#CCn1c(=O)n(CCN2CCN(c3ccccc3OC)CC2)c(=O)c2cscc21
Second: CC(C)c1cccc(C(C)C)c1NC(=O)CNC(c1ccccc1)c1cccs1 (configuration not stated)
The melting point of the first is lower: 142 to 143 °C for the first, 164 to 166 °C for the second.

Compared with `CCN(CC)c1ccc(/C=C/C(=O)CC(=O)/C=C/c2ccc3cc[nH]c3c2)c(OCc2ccccn2)c1`, `Brc1ccc(Nc2nnc(Cc3ccncc3)c3ccccc23)cc1` is higher in melting point: 92 to 96 °C for the first, 201 to 202 °C for the second.

Compound `Cc1cc2oc(N(N)CCC#N)nc2c(C)c1C` has a melting point of 143 to 144 °C.
